In ChEMBL document CHEMBL5506069, “A Unique Hybridization Route to Access Hydrazylnaphthalimidols as Novel Structural Scaffolds of Multitargeting Broad-Spectrum Antifungal Candidates” (J Med Chem, 2024):
In brackets after ≈: the same amount, converted by molar mass. Activity calls are given as the source filed them. The rule behind the calls is not given here.

How the values were obtained:
Candida albicans [1] = experiment: Antifungal activity against Candida albicans assessed as inhibition of fungal growth incubated for 24 hrs by CLSI based microbroth dilution method; format: functional
Candida albicans [2] = experiment: Antibiofilm activity against Candida albicans assessed as inhibition of biofilm formation at 0.5 to 8 microg/ml measured for 24 hrs by crystal violet staining based; format: functional; conditions: dose 0.5-8 µg/ml
Aspergillus fumigatus [3] = experiment: Antifungal activity against Aspergillus fumigatus assessed as inhibition of fungal growth incubated for 24 hrs by CLSI based microbroth dilution method; format: functional
Candida albicans [4] = experiment: Antifungal activity against Candida albicans ATCC 90023 assessed as inhibition of fungal growth incubated for 24 hrs by CLSI based microbroth dilution method; format: functional
Candida albicans [5] = experiment: Antifungal activity against Candida albicans measured after at 8 passages; format: functional, organism-based
Candida tropicalis = experiment: Antifungal activity against Candida tropicalis assessed as inhibition of fungal growth incubated for 24 hrs by CLSI based microbroth dilution method; format: functional
Candida parapsilosis = experiment: Antifungal activity against Candida parapsilosis ATCC 22019 assessed as inhibition of fungal growth incubated for 24 hrs by CLSI based microbroth dilution method; format: functional; conditions: Lodderomyces parapsilosis
Candida albicans [6] = experiment: Potency index, ratio of fluconazole MIC to test compound MIC for antifungal activity against Candida albicans ATCC 90023 assessed as inhibition of fungal growth incubated for 24 hrs by CLSI based microbroth dilution method; format: functional
Cell membrane = experiment: Induction of cell membrane potential loss in Candida albicans assessed as change in fluorescence intensity at 4 times MIC measured for 30 mins by DiSC3-5 dye based fluorescence method; format: subcellular
Aspergillus fumigatus [7] = experiment: Potency index, ratio of fluconazole MIC to test compound MIC for antifungal activity against Aspergillus fumigatus assessed as inhibition of fungal growth incubated for 24 hrs by CLSI based microbroth dilution method; format: functional

OC(Cn1cncn1)(Cn1cncn1)c1ccc(F)cc1F [FLUCONAZOLE]
MIC (Candida albicans [1]): 13 µM (≈ 3.98 µg/mL)
inhibition (Candida albicans [2]): inactive
MIC (Aspergillus fumigatus [3]): 418 µM (≈ 128 µg/mL)
MIC (Candida albicans [4]): 33 µM (≈ 10.1 µg/mL)
Activity (Candida albicans [5]): inactive
MIC (Candida tropicalis): 13 µM (≈ 3.98 µg/mL)
MIC (Candida parapsilosis): 26 µM (≈ 7.96 µg/mL)

CCCCc1nc(Cl)c(/C=N/Nc2ccc3c4c(cccc24)C(=O)N(CCO)C3=O)n1Cc1cccc(Cl)c1
MIC (Candida albicans [1]): 57 µM (≈ 32.2 µg/mL)
MIC (Aspergillus fumigatus [3]): 114 µM (≈ 64.3 µg/mL)
MIC (Candida albicans [4]): 2 µM (≈ 1.13 µg/mL)
MIC (Candida tropicalis): 28 µM (≈ 15.8 µg/mL)
Ratio (Candida albicans [6]): 16
MIC (Candida parapsilosis): 57 µM (≈ 32.2 µg/mL)

O=C1c2cccc3c(N/N=C/c4ccc[n+](Cc5ccc([N+](=O)[O-])cc5)c4)ccc(c23)C(=O)N1CCO
MIC (Candida albicans [1]): 56 µM
MIC (Aspergillus fumigatus [3]): 111 µM
MIC (Candida albicans [4]): 56 µM
Activity (Cell membrane): inactive
MIC (Candida tropicalis): 111 µM
MIC (Candida parapsilosis): 14 µM

C[n+]1cccc(/C=N/Nc2ccc3c4c(cccc24)C(=O)N(CCO)C3=O)c1.[I-]
MIC (Candida albicans [1]): 32 µM
Ratio (Aspergillus fumigatus [7]): 52
MIC (Aspergillus fumigatus [3]): 8 µM
MIC (Candida albicans [4]): 16 µM
MIC (Candida tropicalis): 64 µM
MIC (Candida parapsilosis): 127 µM

O=C1c2cccc3c(N/N=C/c4c(Cl)cccc4Cl)ccc(c23)C(=O)N1CCO
MIC (Candida albicans [1]): 150 µM (≈ 64.2 µg/mL)
MIC (Aspergillus fumigatus [3]): 300 µM (≈ 128 µg/mL)
MIC (Candida albicans [4]): 300 µM (≈ 128 µg/mL)
MIC (Candida tropicalis): 150 µM (≈ 64.2 µg/mL)
MIC (Candida parapsilosis): 599 µM (≈ 257 µg/mL)

CCCCc1nc(Cl)c(/C=N/Nc2ccc3c4c(cccc24)C(=O)N(CCO)C3=O)n1CC(=O)OCC
MIC (Candida albicans [1]): 30 µM (≈ 15.8 µg/mL)
MIC (Aspergillus fumigatus [3]): 61 µM (≈ 32.1 µg/mL)
MIC (Candida albicans [4]): 61 µM (≈ 32.1 µg/mL)
MIC (Candida tropicalis): 2 µM (≈ 1.05 µg/mL)
MIC (Candida parapsilosis): 244 µM (≈ 128 µg/mL)

CCCCc1nc(Cl)c(/C=N/Nc2ccc3c4c(cccc24)C(=O)N(CCO)C3=O)n1Cc1ccc(Cl)cc1Cl
MIC (Candida albicans [1]): 54 µM (≈ 32.3 µg/mL)
MIC (Aspergillus fumigatus [3]): 214 µM (≈ 128 µg/mL)
MIC (Candida albicans [4]): 3 µM (≈ 1.8 µg/mL)
MIC (Candida tropicalis): 54 µM (≈ 32.3 µg/mL)
MIC (Candida parapsilosis): 13 µM (≈ 7.79 µg/mL)

CCCCN1C(=O)c2cccc3c(N/N=C(\C)Cn4c([N+](=O)[O-])cnc4C)ccc(c23)C1=O
MIC (Candida albicans [1]): 1140 µM (≈ 512 µg/mL)
MIC (Aspergillus fumigatus [3]): 1140 µM (≈ 512 µg/mL)
MIC (Candida albicans [4]): 1140 µM (≈ 512 µg/mL)
MIC (Candida tropicalis): 1140 µM (≈ 512 µg/mL)
MIC (Candida parapsilosis): 1140 µM (≈ 512 µg/mL)

CCCCc1nc(Cl)c(/C=N/Nc2ccc3c4c(cccc24)C(=O)N(CCO)C3=O)n1CCN1CCOCC1
MIC (Candida albicans [1]): 58 µM (≈ 32.1 µg/mL)
MIC (Aspergillus fumigatus [3]): 29 µM (≈ 16 µg/mL)
MIC (Candida albicans [4]): 4 µM (≈ 2.21 µg/mL)
MIC (Candida tropicalis): 29 µM (≈ 16 µg/mL)
MIC (Candida parapsilosis): 116 µM (≈ 64.2 µg/mL)

CCCCCN1C(=O)c2cccc3c(N/N=C(\C)Cn4c([N+](=O)[O-])cnc4C)ccc(c23)C1=O
MIC (Candida albicans [1]): 1110 µM (≈ 512 µg/mL)
MIC (Aspergillus fumigatus [3]): 554 µM (≈ 256 µg/mL)
MIC (Candida albicans [4]): 1110 µM (≈ 512 µg/mL)
MIC (Candida tropicalis): 1110 µM (≈ 512 µg/mL)
MIC (Candida parapsilosis): 554 µM (≈ 256 µg/mL)

CCCCc1nc(Cl)c(/C=N/Nc2ccc3c4c(cccc24)C(=O)N(CCO)C3=O)n1CC1CC1
MIC (Candida albicans [1]): 65 µM (≈ 32.1 µg/mL)
MIC (Aspergillus fumigatus [3]): 8 µM (≈ 3.95 µg/mL)
MIC (Candida albicans [4]): 8 µM (≈ 3.95 µg/mL)
MIC (Candida tropicalis): 32 µM (≈ 15.8 µg/mL)
MIC (Candida parapsilosis): 65 µM (≈ 32.1 µg/mL)

CCCCc1nc(Cl)c(/C=N/Nc2ccc3c4c(cccc24)C(=O)N(CCO)C3=O)n1Cc1ccccc1Cl
MIC (Candida albicans [1]): 57 µM (≈ 32.2 µg/mL)
MIC (Aspergillus fumigatus [3]): 227 µM (≈ 128 µg/mL)
MIC (Candida albicans [4]): 4 µM (≈ 2.26 µg/mL)
MIC (Candida tropicalis): 57 µM (≈ 32.2 µg/mL)
MIC (Candida parapsilosis): 57 µM (≈ 32.2 µg/mL)

CCCCc1nc(Cl)c(/C=N/Nc2ccc3c4c(cccc24)C(=O)N(CCO)C3=O)n1C
MIC (Candida albicans [1]): 71 µM (≈ 32.2 µg/mL)
MIC (Aspergillus fumigatus [3]): 18 µM (≈ 8.17 µg/mL)
MIC (Candida albicans [4]): 71 µM (≈ 32.2 µg/mL)
MIC (Candida tropicalis): 141 µM (≈ 64 µg/mL)
MIC (Candida parapsilosis): 565 µM (≈ 256 µg/mL)

CCCCc1nc(Cl)c(/C=N/Nc2ccc3c4c(cccc24)C(=O)N(CCO)C3=O)n1Cc1ccc([N+](=O)[O-])cc1
MIC (Candida albicans [1]): 111 µM (≈ 63.8 µg/mL)
MIC (Aspergillus fumigatus [3]): 111 µM (≈ 63.8 µg/mL)
MIC (Candida albicans [4]): 7 µM (≈ 4.03 µg/mL)
MIC (Candida tropicalis): 28 µM (≈ 16.1 µg/mL)
MIC (Candida parapsilosis): 14 µM (≈ 8.05 µg/mL)

C=CCN1C(=O)c2cccc3c(N/N=C(\C)Cn4c([N+](=O)[O-])cnc4C)ccc(c23)C1=O
MIC (Candida albicans [1]): 1190 µM (≈ 515 µg/mL)
MIC (Aspergillus fumigatus [3]): 595 µM (≈ 257 µg/mL)
MIC (Candida albicans [4]): 1190 µM (≈ 515 µg/mL)
MIC (Candida tropicalis): 1190 µM (≈ 515 µg/mL)
MIC (Candida parapsilosis): 1190 µM (≈ 515 µg/mL)

Cc1ccc(/C=N/Nc2ccc3c4c(cccc24)C(=O)N(CCO)C3=O)o1
MIC (Candida albicans [1]): 42 µM (≈ 15.3 µg/mL)
MIC (Aspergillus fumigatus [3]): 338 µM (≈ 123 µg/mL)
MIC (Candida albicans [4]): 84 µM (≈ 30.5 µg/mL)
MIC (Candida tropicalis): 84 µM (≈ 30.5 µg/mL)
MIC (Candida parapsilosis): 169 µM (≈ 61.4 µg/mL)

CCCCCCCN1C(=O)c2cccc3c(N/N=C(\C)Cn4c([N+](=O)[O-])cnc4C)ccc(c23)C1=O
MIC (Candida albicans [1]): 1040 µM (≈ 512 µg/mL)
MIC (Aspergillus fumigatus [3]): 1040 µM (≈ 512 µg/mL)
MIC (Candida albicans [4]): 1040 µM (≈ 512 µg/mL)
MIC (Candida tropicalis): 1040 µM (≈ 512 µg/mL)
MIC (Candida parapsilosis): 1040 µM (≈ 512 µg/mL)

C#CCn1c(CCCC)nc(Cl)c1/C=N/Nc1ccc2c3c(cccc13)C(=O)N(CCO)C2=O
MIC (Candida albicans [1]): 67 µM (≈ 32 µg/mL)
MIC (Aspergillus fumigatus [3]): 8 µM (≈ 3.82 µg/mL)
MIC (Candida albicans [4]): 17 µM (≈ 8.13 µg/mL)
MIC (Candida tropicalis): 2 µM (≈ 0.956 µg/mL)
MIC (Candida parapsilosis): 67 µM (≈ 32 µg/mL)

CCCN1C(=O)c2cccc3c(N/N=C(\C)Cn4c([N+](=O)[O-])cnc4C)ccc(c23)C1=O
MIC (Candida albicans [1]): 1180 µM (≈ 512 µg/mL)
MIC (Aspergillus fumigatus [3]): 1180 µM (≈ 512 µg/mL)
MIC (Candida albicans [4]): 1180 µM (≈ 512 µg/mL)
MIC (Candida tropicalis): 1180 µM (≈ 512 µg/mL)
MIC (Candida parapsilosis): 1180 µM (≈ 512 µg/mL)
